Assay results from ChEMBL document CHEMBL6120974, “Hydrazide-Based Class I Selective HDAC Inhibitors Completely Reverse Chemoresistance Synergistically in Platinum-Resistant Solid Cancer Cells” (J Med Chem, 2024).
pIC50: −log10 of the molar value. Activity calls are given as the source filed them. The calls are words filed in the database; no cut-off is given here.

Key:
A2780cisR [1] = assay: Induction of apoptosis in cisplatin resistant human A2780 cisR cells assessed as decrease in Bcl-2 protein level at 2 uM incubated for 48 hrs by Immunoblotting analysis; format: functional, cell-based
HL-60 = assay: cells; conditions: Homo sapiens, HL-60, 72 h
Description: Cytotoxicity against human HL-60 cells harboring p53 null assessed as cell viability incubated for 72 hrs by MTT assay

Cal27CisR [2] = assay: Induction of apoptosis in cisplatin resistant human Cal27CisR cells assessed as increase in caspase 3/7 activation at 0.316 uM in presence of cisplatin preincubated with compound for 48 hrs co-treated with cisplatin and measured after 24 hrs by capase3/7 green dye based analysis; format: functional, cell-based; conditions: time 72.0 hrs
A2780cisR [3] = assay: Effect on survivin expression in human cisplatin resistant human A2780 cisR cells at 2 uM incubated for 48 hrs by Immunoblotting analysis; format: functional, cell-based
A2780cisR [4] = assay: Induction of apoptosis in cisplatin resistant human A2780 cisR cells assessed as increase in caspase 3/7 activation at 2 uM in presence of cisplatin preincubated with compound for 48 hrs co-treated with cisplatin and measured after 24 hrs by capase3/7 green dye based analysis; format: functional, cell-based; conditions: time 72.0 hrs
A2780 [5] = assay: Induction of DNA damage in human A2780 cells assessed as increase in gammaH2AX formation at 0.75 uM in presence of cisplatin at 3.5 uM pretreated with compound for 48 hrs prior to addition of cisplatin and measured after 24 hrs by Hoechst 33342 staining based Immunofluorescence analysis; format: functional, cell-based; conditions: time 72.0 hrs
CAL-27 [6] = assay: Induction of apoptosis in human CAL-27 cells assessed as increase in Bcl-2 protein level at 0.316 uM in presence of cisplatin at 3 uM preincubated with compound for 48 hrs prior to addition of cisplatin and measured after 24 hrs by Immunoblotting analysis; format: functional, cell-based
A2780 [7] = assay: cells; conditions: Homo sapiens, A2780, 72 h
Description: Cytotoxicity against human A2780 cells assessed as reduction in cell viability incubated for 72 hrs by MTT assay

Cal27CisR [8] = assay: Induction of apoptosis in cisplatin resistant human Cal27CisR cells assessed as increase in BIM expression at 0.316 uM in presence of cisplatin at 16.5 uM preincubated with compound for 48 hrs prior to addition of cisplatin and measured after 24 hrs by Immunoblotting analysis; format: functional, cell-based; conditions: time 72.0 hrs
[9] = Cytotoxicity against human HEK293 cells assessed as reduction in cell viability incubated for 72 hrs by MTT assay; format: toxicity, cell-based
A2780 [10] = assay: Downregulation of BAX expression in human A2780 cells at 0.75 uM incubated for 48 hrs by Immunoblotting analysis; format: functional, cell-based
cells [11] = conditions: Homo sapiens, A2780
Description: Inhibition of class IIa/8 HDAC (unknown origin) in human A2780 cells using Boc-Lys(TFA)-AMC as substrate preincubated with compound for 18 hrs followed by substrate addition and measured after 3 hrs by NOVOstar microplate reader analysis

A2780 [12] = assay: Induction of cell cycle arrest in human A2780 cells assessed as increase in p21 expression at 0.75 uM incubated for 48 hrs by Western blotting analysis; format: functional, cell-based
A2780cisR [13] = assay: Induction of apoptosis in cisplatin resistant human A2780 cisR cells assessed as increase in BIM expression at 2 uM incubated for 48 hrs by Immunoblotting analysis; format: functional, cell-based
A2780cisR [14] = assay: Induction of apoptosis in cisplatin resistant human A2780 cisR cells assessed as increase in apoptotic nuclei at sub-G1 phase at 2 uM in presence of cisplatin at 16 uM preincubated with compound for 48 hrs prior to addition of cisplatin and measured after 24 hrs by flow cytometric analysis; format: functional, cell-based; conditions: time 72.0 hrs
Cal27CisR [15] = assay: Induction of apoptosis in cisplatin resistant human Cal27CisR cells assessed as increase in Bcl-2 protein level at 0.316 uM incubated for 48 hrs by Immunoblotting analysis; format: functional, cell-based
A2780 [16] = assay: Downregulation of survivin expression in human A2780 cells at 0.75 uM incubated for 48 hrs by Immunoblotting analysis; format: functional, cell-based
A2780 [17] = assay: Induction of apoptosis in human A2780 cells assessed as decrease in Bcl-2 protein level at 0.75 uM incubated for 48 hrs by Immunoblotting analysis; format: functional, cell-based
CAL-27 [18] = assay: Induction of apoptosis in human CAL-27 cells assessed as increase in Bcl-2 protein level at 0.316 uM incubated for 48 hrs by Immunoblotting analysis; format: functional, cell-based
A2780 [19] = assay: Induction of apoptosis in human A2780 cells assessed as increase in apoptotic nuclei at sub-G1 phase at 2 uM incubated for 48 hrs by flow cytometric analysis; format: functional, cell-based
A2780cisR [20] = assay: Effect on survivin expression in human cisplatin resistant human A2780 cisR cells at 2 uM in presence of cisplatin at 16 uM preincubated with compound for 48 hrs prior to addition of cisplatin and measured after 24 hrs by Immunoblotting analysis; format: functional, cell-based; conditions: time 72.0 hrs
A2780cisR [21] = assay: cells; conditions: Homo sapiens, 72 h
A2780 [22] = assay: Downregulation of survivin expression in human A2780 cells at 0.75 uM in presence of cisplatin at 3.5 uM preincubated with compound for 48 hrs prior to addition of cisplatin and measured after 24 hrs by Immunoblotting analysis; format: functional, cell-based; conditions: time 72.0 hrs
Cal27CisR [23] = assay: Induction of DNA damage in cisplatin resistant human Cal27CisR cells assessed as increase in gammaH2AX formation at 0.316 uM in presence of cisplatin at 16.5 uM pretreated with compound for 48 hrs prior to addition of cisplatin and measured after 24 hrs by Hoechst 33342 staining based Immunofluorescence analysis; format: functional, cell-based; conditions: time 72.0 hrs
Cal27CisR [24] = assay: Induction of apoptosis in human Cal27CisR cells assessed as increase in BIM expression at 0.316 uM incubated for 48 hrs by Immunoblotting analysis; format: functional, cell-based
cells [25] = conditions: Homo sapiens, Cal27CisR, 72 h
Description: Cytotoxicity against cisplatin resistant human Cal27CisR cells assessed as reduction in cell viability incubated for 72 hrs by MTT assay

cells [26] = conditions: Homo sapiens, Cal27CisR
Description: Inhibition of class I/6 HDAC (unknown origin) in cisplatin resistant human Cal27CisR cells using Boc-Lys(epsilon-Ac)-AMC as substrate preincubated with compound for 18 hrs followed by substrate addition and measured after 3 hrs by NOVOstar microplate reader analysis

Histone deacetylase 4 = Histone deacetylase 4 (Homo sapiens, UniProt P56524); assay: Inhibition of recombinant HDAC4 (unknown origin) using Bos-Lys(TFA)-AMC as substrate preincubated with compound for 5 mins and measured after 90 mins by NOVOstar microplate reader analysis
Chain of Histone deacetylase 4 (P56524 whole entry): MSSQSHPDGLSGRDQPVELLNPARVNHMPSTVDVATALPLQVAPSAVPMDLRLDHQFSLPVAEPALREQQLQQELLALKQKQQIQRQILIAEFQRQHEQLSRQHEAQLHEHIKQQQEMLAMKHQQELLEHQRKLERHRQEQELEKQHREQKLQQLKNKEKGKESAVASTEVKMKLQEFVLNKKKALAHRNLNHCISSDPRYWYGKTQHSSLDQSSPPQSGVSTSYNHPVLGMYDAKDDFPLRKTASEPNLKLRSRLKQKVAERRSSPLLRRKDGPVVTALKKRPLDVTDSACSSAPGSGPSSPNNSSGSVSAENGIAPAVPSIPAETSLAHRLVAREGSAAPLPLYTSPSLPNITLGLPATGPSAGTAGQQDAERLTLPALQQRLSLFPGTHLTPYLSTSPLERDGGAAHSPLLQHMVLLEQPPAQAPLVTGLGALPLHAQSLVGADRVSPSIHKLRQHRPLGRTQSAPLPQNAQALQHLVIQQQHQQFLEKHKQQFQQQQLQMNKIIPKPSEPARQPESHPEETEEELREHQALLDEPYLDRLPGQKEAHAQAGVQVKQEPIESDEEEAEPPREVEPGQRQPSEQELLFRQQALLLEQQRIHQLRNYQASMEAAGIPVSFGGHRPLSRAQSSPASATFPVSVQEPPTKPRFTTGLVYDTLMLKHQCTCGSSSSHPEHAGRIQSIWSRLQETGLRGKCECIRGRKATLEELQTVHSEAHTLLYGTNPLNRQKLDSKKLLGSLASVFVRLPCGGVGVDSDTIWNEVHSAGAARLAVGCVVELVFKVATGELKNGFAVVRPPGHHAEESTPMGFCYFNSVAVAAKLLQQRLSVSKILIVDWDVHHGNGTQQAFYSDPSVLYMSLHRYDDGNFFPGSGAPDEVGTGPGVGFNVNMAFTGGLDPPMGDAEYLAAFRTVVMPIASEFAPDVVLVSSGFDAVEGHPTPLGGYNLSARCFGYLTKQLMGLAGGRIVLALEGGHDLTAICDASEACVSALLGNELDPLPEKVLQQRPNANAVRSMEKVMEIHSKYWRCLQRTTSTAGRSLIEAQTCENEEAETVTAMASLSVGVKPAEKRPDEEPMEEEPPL

CAL-27 [27] = assay: Induction of apoptosis in human CAL-27 cells assessed as increase in BIM expression at 0.316 uM incubated for 48 hrs by Immunoblotting analysis; format: functional, cell-based
A2780 [28] = assay: Induction of apoptosis in human A2780 cells assessed as increase in apoptotic nuclei at sub-G1 phase at 2 uM in presence of cisplatin at 16 uM preincubated with compound for 48 hrs prior to addition of cisplatin and measured after 24 hrs by flow cytometric analysis; format: functional, cell-based; conditions: time 72.0 hrs
CAL-27 [29] = assay: Downregulation of survivin expression in human CAL-27 cells at 0.316 uM in presence of cisplatin at 3 uM preincubated with compound for 48 hrs prior to addition of cisplatin and measured after 24 hrs by Immunoblotting analysis; format: functional, cell-based; conditions: time 72.0 hrs
A2780cisR [30] = assay: Induction of apoptosis in cisplatin resistant human A2780 cisR cells assessed as caspase-3/7 activation at 2 uM incubated for 48 hrs by capase3/7 green dye based analysis; format: functional, cell-based
Cal27CisR [31] = assay: Downregulation of survivin expression in cisplatin resistant human Cal27CisR cells at 0.316 uM in presence of cisplatin at 16.5 uM preincubated with compound for 48 hrs prior to addition of cisplatin and measured after 24 hrs by Immunoblotting analysis; format: functional, cell-based; conditions: time 72.0 hrs
Cal27CisR [32] = assay: Induction of apoptosis in cisplatin resistant human Cal27CisR cells assessed as increase in Bcl-2 protein level at 0.316 uM in presence of cisplatin at 16.5 uM preincubated with compound for 48 hrs prior to addition of cisplatin and measured after 24 hrs by Immunoblotting analysis; format: functional, cell-based; conditions: time 72.0 hrs

Row | Compound | Activity (A2780cisR [1]) | pIC50 (HL-60) | Activity (Cal27CisR [2]) | Activity (A2780cisR [3]) | Activity (A2780cisR [4]) | Activity (A2780 [5]) | Activity (CAL-27 [6]) | pIC50 (A2780 [7]) | Activity (Cal27CisR [8]) | IC50 at 72 h [9] [nM] | Activity (A2780 [10]) | pIC50 (cells [11]) | Activity (A2780 [12]) | Activity (A2780cisR [13]) | Activity (A2780cisR [14]) | Activity (Cal27CisR [15]) | Activity (A2780 [16]) | Activity (A2780 [17]) | Activity (CAL-27 [18]) | Activity (A2780 [19]) | further results
1 | CCCNNC(=O)c1ccc(CN(CC(=O)NCc2ccccc2)C(=O)c2ccc(N(C)C)cc2)cc1 | Active | 6.37 | Active | inactive | Active | inactive | Not active; Slight Increase Observed | 5.95 | Active | 1160 | Active | 3.94 | Active | Active | inactive | Not active; Slight Increase Observed | Active | Active | Not active; Slight Increase Observed | Active | Activity (A2780cisR [20]): inactive; pIC50 (A2780cisR [21]): 5.61; Activity (A2780 [22]): Active; Activity (Cal27CisR [23]): Active; Activity (Cal27CisR [24]): Active; pIC50 (cells [25]): 6.10; pIC50 (cells [26]): 6.81; pIC50 (Histone deacetylase 4): < 5.00; Activity (CAL-27 [27]): Active; Activity (A2780 [28]): inactive; Activity (CAL-27 [29]): Active; Activity (A2780cisR [30]): Active; Remarkable Activation Observed; Activity (Cal27CisR [31]): Active; Activity (Cal27CisR [32]): Not active; Slight Increase Observed
2 | CCCCNNC(=O)c1ccc(CN(CC(=O)NCc2ccccc2)C(=O)c2ccc(N(C)C)cc2)cc1 | Active | 6.32 | Active | inactive | Active | inactive | Not active; Slight Increase Observed | 6.05 | Active | 1090 | Active | 4.80 | Active | Active | inactive | Not active; Slight Increase Observed | Active | Active | Not active; Slight Increase Observed | Active | Activity (A2780cisR [20]): inactive; pIC50 (A2780cisR [21]): 5.57; Activity (A2780 [22]): Active; Activity (Cal27CisR [23]): Active; Activity (Cal27CisR [24]): Active; pIC50 (cells [25]): 6.01; pIC50 (cells [26]): 6.81; pIC50 (Histone deacetylase 4): < 5.00; Activity (CAL-27 [27]): Active; Activity (A2780 [28]): inactive; Activity (CAL-27 [29]): Active; Activity (A2780cisR [30]): Active; Remarkable Activation Observed; Activity (Cal27CisR [31]): Active; Activity (Cal27CisR [32]): Not active; Slight Increase Observed
